# ± gives the standard deviation of the averaged measurements.
# What was measured:
# Assay in all cases: level (log10 ratio to DMSO vehicle control); higher = higher biomarker level / cell amount than vehicle control
# [1] = compound: OCC(F)(F)C(F)(F)C(F)(F)C(F)(F)C(F)(F)C(F)(F)C(F)(F)C(F)(F)C(F)(F)C(F)(F)C(F)(F)F [11:1 Fluorotelomer alcohol]; conditions: in DMSO
# Procedure: (§1)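 BioMAP Diversity Plus panel of 12 human primary cell co-culture systems (3C, 4H, LPS, SAg, BT, BF4T, BE3C, CASM3C, HDF3CGF, KF3CT, MyoF, Mphg). Compounds were added 1 h before stimulation and left for 24 h (MyoF 48 h; BT 72 h for soluble read-outs or 6 d for IgG). Biomarkers were read by ELISA, cytotoxicity by SRB, PBMC viability and proliferation by Alamar Blue. Each well value was divided by the mean of 8 DMSO control wells on the same plate and log10 transformed; duplicate blinded samples were tested at 4 concentrations.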
# [2] = compound: O=S(=O)(O)CCC(F)(F)C(F)(F)C(F)(F)C(F)(F)F [4:2 Fluorotelomer sulfonic acid]; conditions: in DMSO
# Procedure: as §1
# [3] = compound: FC(F)(I)C(F)(F)C(F)(F)C(F)(F)C(F)(F)C(F)(F)I [1,6-Diiodoperfluorohexane]; conditions: 6700 nM; in DMSO
# Procedure: as §1
# [4] = compound: O=S(=O)(OCC(F)(F)F)C(F)(F)C(F)(F)C(F)(F)C(F)(F)F [2,2,2-Trifluoroethyl perfluorobutanesulfonate]; conditions: in DMSO
# Procedure: as §1
# [5] = compound: O=C(CC(=O)C(F)(F)C(F)(F)C(F)(F)F)c1cccs1 [(Perfluorobutyryl)-2-thenoylmethane]; conditions: in DMSO
# Procedure: as §1
# [6] = compound: O=C(Cl)C(F)(F)C(F)(F)C(F)(F)C(=O)Cl [Hexafluoroglutaryl chloride]; conditions: in DMSO
# Procedure: as §1
# [7] = compound: OCC(F)(F)C(F)(F)C(F)(F)C(F)(F)C(F)(F)C(F)(F)F [6:1 Fluorotelomer alcohol]; conditions: in DMSO
# Procedure: as §1
Test System,level (log10) ([1]; 1100 nM),level (log10) ([1]; 3300 nM),level (log10) ([1]; 10000 nM),level (log10) ([2]; 6700 nM),level (log10) ([2]; 20000 nM),level (log10) ([2]; 60000 nM),level (log10) [3],level (log10) ([4]; 6700 nM),level (log10) ([4]; 20000 nM),level (log10) ([4]; 60000 nM),level (log10) ([5]; 6700 nM),level (log10) ([5]; 20000 nM),level (log10) ([6]; 6700 nM),level (log10) ([6]; 20000 nM),level (log10) ([6]; 60000 nM),level (log10) ([7]; 6700 nM),level (log10) ([7]; 20000 nM),level (log10) ([7]; 60000 nM)
lMphg:CXCL8/IL-8,0.111 ± 0.042,0.127 ± 0.033,0.0445 ± 0.0064,-0.0295 ± 0.043,-0.0215 ± 0.021,0.005 ± 0.031,0.018,0.031,0.025 ± 0.018,0.072 ± 0.068,-0.022 ± 0.027,0.048 ± 0.011,0.023 ± 0.011,0.027 ± 0.018,0.0625 ± 0.05,0.0335 ± 0.016,0.0395 ± 0.035,0.0375 ± 0.0092
3C:CD62E/E-Selectin,-0.0125 ± 0.013,0.008 ± 0.0028,0.0155 ± 0.0078,-0.019 ± 0.011,-0.0035 ± 0.019,0.0045 ± 0.018,0.005,-0.0085 ± 0.013,-0.0385 ± 0.021,-0.0045 ± 0.016,-0.0365 ± 0.036,-0.019 ± 0.0014,-0.0315 ± 0.049,-0.02 ± 0.038,-0.0025 ± 0.012,-0.001 ± 0.0099,-0.011 ± 0.0085,0.0125 ± 0.0078
3C:CD141/Thrombomodulin,0.0225 ± 0.021,0.0705 ± 0.00071,0.09 ± 0.02,-0.014 ± 0.0028,-0.005 ± 0.013,-0.013 ± 0.044,-0.003,-0.024 ± 0.018,-0.041 ± 0.028,-0.051 ± 0.016,-0.113 ± 0.081,-0.071 ± 0.05,-0.0455 ± 0.013,-0.0275 ± 0.0078,-0.056 ± 0.057,-0.0155 ± 0.018,-0.0285 ± 0.0092,-0.005 ± 0.02
HDF3CGF:M-CSF,0.0115 ± 0.016,0.0095 ± 0.032,-0.003 ± 0.021,-0.038 ± 0.05,-0.062 ± 0.05,-0.0835 ± 0.019,-0.454,-0.009 ± 0.0057,0.0105 ± 0.022,0.0195 ± 0.005,0.0085 ± 0.013,-0.001 ± 0.0028,-0.003 ± 0.02,-0.0035 ± 0.016,0 ± 0.0099,0 ± 0.02,0.0355 ± 0.0092,-0.225 ± 0.03
HDF3CGF:CCL2/MCP-1,0.0305 ± 0.033,0.0075 ± 0.0064,0.0095 ± 0.015,-0.008 ± 0.0071,-0.009 ± 0.017,0.0105 ± 0.028,-0.68,-0.0125 ± 0.021,0.0255 ± 0.021,-0.0205 ± 0.033,-0.005 ± 0.011,-0.172 ± 0.014,-0.036 ± 0.0099,-0.0285 ± 0.037,0.0095 ± 0.00071,-0.014 ± 0.028,-0.013 ± 0.057,-0.044 ± 0.082
BE3C:PAI-I,-0.045 ± 0.057,-0.0855 ± 0.054,-0.0555 ± 0.07,-0.0075 ± 0.0035,-0.014 ± 0.0085,-0.008 ± 0.017,0.015,-0.0005 ± 0.011,0.003 ± 0.0085,0.014 ± 0.011,-0.127 ± 0.023,-0.363 ± 0.035,-0.0285 ± 0.053,-0.0715 ± 0.059,-0.0935 ± 0.094,-0.0235 ± 0.0092,-0.007 ± 0.0014,0.026 ± 0.011
lMphg:sIL-10,-0.0255 ± 0.069,-0.0875 ± 0.066,-0.216 ± 0.082,0.015 ± 0.041,-0.0485 ± 0.032,-0.0545 ± 0.0064,-0.219,0.072 ± 0.0042,0.0465 ± 0.0035,-0.171 ± 0.052,0.0065 ± 0.071,-0.429 ± 0.093,-0.049 ± 0.045,-0.102 ± 0.0035,0.0335 ± 0.076,0.0065 ± 0.073,-0.0215 ± 0.013,-0.023 ± 0.0071
KF3CT:CD54/ICAM-1,-0.014 ± 0.0071,-0.0295 ± 0.0021,-0.0045 ± 0.012,-0.006 ± 0.0085,-0.0125 ± 0.0092,-0.0125 ± 0.0078,-0.038,0.015 ± 0.03,-0.0055 ± 0.0092,-0.006 ± 0.013,-0.0335 ± 0.00071,-0.0115 ± 0.023,-0.013 ± 0.0014,-0.002 ± 0.0057,-0.002 ± 0.0028,0.001 ± 0.0014,-0.005 ± 0.0071,0.016 ± 0.013
MyoF:Collagen III,0.011 ± 0.0085,-0.0005 ± 0.00071,-0.001 ± 0.0071,-0.013 ± 0.016,-0.032 ± 0.0028,-0.0045 ± 0.011,-0.527,-0.013 ± 0.0085,-0.006 ± 0.016,-0.0365 ± 0.005,-0.059 ± 0.018,-0.141 ± 0.0078,-0.0115 ± 0.0078,-0.004 ± 0.035,-0.003 ± 0.021,-0.005,-0.0015 ± 0.005,0.0105 ± 0.005
HDF3CGF:CXCL9/MIG,0.009,-0.0145 ± 0.00071,0.009 ± 0.05,-0.01 ± 0.02,-0.0025 ± 0.029,-0.023 ± 0.025,-0.463,-0.0075 ± 0.016,-0.011 ± 0.014,-0.039 ± 0.0071,-0.0495 ± 0.012,-0.0855 ± 0.0064,0.0125 ± 0.018,-0.0055 ± 0.0064,0.0075 ± 0.012,-0.001 ± 0.0042,-0.012 ± 0.011,-0.0175 ± 0.0078
KF3CT:PAI-I,-0.002 ± 0.0071,-0.0055 ± 0.012,0.001 ± 0.023,-0.005 ± 0.0071,-0.015 ± 0.0014,-0.0175 ± 0.0064,-0.117,0.0005 ± 0.028,0.003 ± 0.033,0.0265 ± 0.018,-0.035 ± 0.0071,-0.058 ± 0.013,-0.012 ± 0.028,-0.0005 ± 0.0078,-0.0055 ± 0.015,-0.0005 ± 0.011,-0.001 ± 0.011,0.008 ± 0.0099
CASM3C:M-CSF,-0.026 ± 0.044,0.006 ± 0.031,0.017 ± 0.0099,-0.0265 ± 0.011,-0.02 ± 0.0028,0.001 ± 0.03,-0.042,-0.011 ± 0.0057,0.004 ± 0.0042,0.0365 ± 0.03,0.014,0.012 ± 0.04,-0.001 ± 0.0028,0.0095 ± 0.057,0.03 ± 0.051,-0.013 ± 0.0042,-0.013 ± 0.037,-0.0855 ± 0.023
lMphg:SRB-Mphg,-0.039 ± 0.0014,-0.105 ± 0.0085,-0.205 ± 0.0085,-0.004,0.01,0.0065 ± 0.016,-0.023,-0.005 ± 0.0071,-0.019 ± 0.014,-0.024 ± 0.031,0.005 ± 0.011,-0.054 ± 0.0028,0.007 ± 0.0057,0.0065 ± 0.005,0.0125 ± 0.011,-0.0015 ± 0.0064,-0.02 ± 0.014,-0.0595 ± 0.054
BE3C:MMP-1,-0.0275 ± 0.018,-0.0685 ± 0.015,-0.077,0.002 ± 0.0014,-0.0035 ± 0.0035,0.038 ± 0.057,0.014,0.01 ± 0.031,0.0165 ± 0.00071,0.0165 ± 0.00071,0.0945 ± 0.015,-0.051 ± 0.017,-0.001 ± 0.014,-0.008 ± 0.014,0.0065 ± 0.016,-0.0115 ± 0.016,0 ± 0.0014,0.042 ± 0.013
HDF3CGF:Collagen I,0.438 ± 0.0099,0.471 ± 0.03,0.394 ± 0.062,-0.0015 ± 0.054,-0.007 ± 0.0057,0.0385 ± 0.018,0.053,-0.0325 ± 0.016,-0.0635 ± 0.04,-0.047 ± 0.028,-0.0265 ± 0.04,-0.185 ± 0.0071,-0.025 ± 0.023,0.002,0.0065 ± 0.028,-0.01 ± 0.0085,-0.0005 ± 0.005,0.0145 ± 0.039

# Reference: the supplement of paper PMC10331698
